From patent publication US8288383B2, “3-methyl-2- ( (2S) -2- (4- (3-methyl-L, 2, 4-oxadiazol-5-YL) phenyl) morpholino) -6- (pyrim-idin-4-yl) pyrimidin-4 (3H) -one as tau protein kinase inhibitor” (Sanofi, priority 2007, dated 2012)
Where two headings read alike, the source gives them in different places.

Experiments:
CYP2D6 = CYP2D6 (Homo sapiens, UniProt P10635); experiment: Inhibitory activity on CYP2D6 (human recombinant CYPs); assay type: in vitro ADME; conditions: human recombinant CYP2D6, substrate ethylene glycol ester of luciferin-6'-methyl ether, 37° C., read-out: CYP 2D6 inhibition, IC50 value
Chain of CYP2D6 (P10635 whole entry): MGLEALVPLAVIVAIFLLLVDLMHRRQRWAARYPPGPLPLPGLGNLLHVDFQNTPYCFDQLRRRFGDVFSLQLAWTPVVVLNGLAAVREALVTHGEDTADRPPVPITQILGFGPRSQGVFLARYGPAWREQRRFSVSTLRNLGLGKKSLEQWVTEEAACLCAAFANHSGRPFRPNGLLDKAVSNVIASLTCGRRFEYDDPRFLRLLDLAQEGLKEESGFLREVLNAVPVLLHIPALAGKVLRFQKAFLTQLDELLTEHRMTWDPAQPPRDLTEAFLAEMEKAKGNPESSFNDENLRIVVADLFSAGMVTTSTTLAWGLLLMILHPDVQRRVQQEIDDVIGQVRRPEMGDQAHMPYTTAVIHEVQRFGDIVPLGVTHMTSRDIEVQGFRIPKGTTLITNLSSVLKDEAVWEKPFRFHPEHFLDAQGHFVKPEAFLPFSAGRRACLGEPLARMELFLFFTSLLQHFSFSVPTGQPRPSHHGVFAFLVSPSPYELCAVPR
Procedure: The purpose of this pharmacokinetic study was to investigate the inhibitory effects of test compounds on the specific metabolic activity of human CYP isozymes using human recombinant CYPs in vitro. […] The specific substrate and positive control is ethylene glycol ester of luciferin-6′-methyl ether and quinidine, respectively. The substrate for the CYP isozyme was incubated with human recombinant CYPs in the presence or absence of the test compounds and the metabolic activity of the CYP isozyme was determined. The reaction mixture was preincubated at 37° C. without NADPH generating system. The reaction was started by the addition of NADPH generating system, and then terminated by the addition of acetonitrile. The activities of the human CYP isozymes were measured by fluorescence signal (CYP2D6) of reaction mixture. IC50 value for each compound was calculated by setting the data of reaction mixture without compound as 100% activity.

tau phosphorylation = experiment: Inhibitory activity on tau phosphorylation in vivo (pS396 Western blot of mouse cortex); conditions: 10 mg/kg p.o., male CD-1 mice, cortex removed after 1 h, pS396 antibody; ** = statistically significant
Procedure: Test compound was administrated to male CD-1 mice of 5-6 weeks weighing 25-35 g (Charles River Japan, inc.) at 10 mg/kg p.o. (0.5% polyethylen glycol sorbitan monolaurate 80 (Tween80)/water suspension) and after 1 h, mice were decapitated and cortex was promptly removed, followed by being frozen in liquid N2. […] Protein concentrations were determined using DC protein assay kit (BIO-RAD). Supernatants were diluted with sample buffer (62.5 mM Tris-HCl, 25% glycerol, 2% SDS, 0.01% Bromophenol Blue, pH6.8) to adjust the protein concentrations around […] and then boiled for […]. Samples (10 μg) were separated on 10% sodium dodecyl sulfate-polyacrylamide electrophoresis (SDS-PAGE) mini slab gels and transferred onto polyvinylidene difluoride (PVDF) membranes. Membranes were incubated with phosphate buffered saline (PBS) containing 5% non-fat milk for 1h at room temperature and then probed with pS396 anti-body (BIOSOURCE) over night at 4° C. Anti-rabbit IgG horseradish peroxidase (HRP) conjugated anti-body (Promega) was used as secondary anti-body. Membranes were visualized by Enhanced ChemiLuminescence (ECL) kit (Amerasham Bioscience) and detected by LAS1000 (Fuji Photo Film).

[1] = probe ethylene glycol ester of luciferin-6'-methyl ether

IC50 (CYP2D6; [1]) [µM] | melting point | IC50 (CYP2D6) [µM] | Structure (SMILES) | in vivo % phosphorylation against vehicle (tau phosphorylation)
> 50 |  |  | Cn1c(N2CCOC(c3nc(-c4ccccc4)no3)C2)nc(-c2ccncn2)cc1=O (centres unmarked) [Compound 1, 1-Methyl-2-[2-(3-phenyl-[1,2,4]oxadiazol-5-yl)-morpholin-4-yl]-1H-[4,4′]bipyrimidinyl-6-one] | 92.12%
> 25 |  |  | Cn1c(N2CCOC(c3noc(-c4ccccc4)n3)C2)nc(-c2ccncn2)cc1=O (centres unmarked) [Compound 2, 1-Methyl-2-[2-(5-phenyl-[1,2,4]oxadiazol-3-yl)-morpholin-4-yl]-1H-[4,4′]bipyrimidinyl-6-one] | 
> 50 | 179.8 °C (dec.) |  | Cn1ccnc1-c1ccc(C2CN(c3nc(-c4ccncn4)cc(=O)n3C)CCO2)cc1 (centres unmarked) [Compound 4, 1-Methyl-2-{2-[4-(1-methyl-1H-imidazol-2-yl)-phenyl]-morpholin-4-yl}-1H-[4,4′]bipyrimidinyl-6-one] | 
 | 219 °C (dec.) | > 50 | Cc1noc(-c2ccc([C@H]3CN(c4nc(-c5ccncn5)cc(=O)n4C)CCO3)cc2)n1 [Compound of the present invention, 3-Methyl-2-((2S)-2-(4-(3-methyl-1,2,4-oxadiazol-5-yl)phenyl)morpholino)-6-(pyrimidin-4-yl)pyrimidin-4(3H)-one] | 69.86** %
